Experimental data published in patent US6914045B2, “Glycopeptide antibiotics” (Wyeth Holdings Corporation, priority 2001, dated 2005).
In brackets after ≈: the same amount, converted by molar mass.

Key:
Streptococcus sp. = experiment: in vitro antibacterial evaluation, MIC by broth dilution; format: cell-based; details: broth dilution, 18 hours at 35° C.
How it was run: (§1)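 Broth dilution per NCCLS M7-A2 in Mueller-Hinton II medium, inoculum 5×10^5 CFU/mL, antibiotic range 64-0.06 μg/mL. MIC taken as lowest concentration inhibiting growth; Gram-positive panel includes recent clinical isolates resistant to methicillin, penicillin and/or vancomycin.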

Escherichia coli = experiment: as above; format: cell-based; details: 18 hours at 35° C.
How it was run: as §1

Staphylococcus sp. = experiment: as above; format: cell-based; details: broth dilution, 18 hours at 35° C.
How it was run: as §1

Enterococcus sp. = experiment: as above; format: cell-based; details: broth dilution, 18 hours at 35° C.
How it was run: as §1

[1] = tested on: Enterococcus faecalis (GC 6189); experiment: acute lethal infection in mice; format: in vivo; details: female CD-1 mice, intraperitoneal challenge, intravenous 30 min. after infection, 7 day survival
How it was run: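 Intraperitoneal challenge of female CD-1 mice with a bacterial dose lethal to untreated animals within 24-48 hr; single iv treatment 30 min later, 5 mice per dose level. Survival is scored at day 7 and pooled from three experiments to give the median effective dose.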

CCC(CC)C1OCC2OC(OC3C(CO)OC(Oc4ccc(CC5NC(=O)C(C(C)c6ccccc6)NC(=O)CNC(=O)C(CO)NC(=O)C(C(O)C6CNC(=N)N6C6OC(CO)C(O)C(O)C6O)NC(=O)C(C(O)C6CNC(=N)N6)NC5=O)cc4)C(O)C3O)C(O)C(O)C2O1 (stereo not drawn) [Example 116, Cyclo[glycyl-β-methylphenylalanyl-O-[4-O-[4,6-O-(2-ethylbutylidene)hexopyranosyl]-hexopyranosyl]tyrosyl-3-(2-iminoimidazolidin-4-yl)seryl-3-(3-hexopyranosvl-2-iminoimidazolidin-4-yl)serylseryl]]
MIC Streptococcus agalactiae (GC 4564) (Streptococcus sp.; Streptococcus agalactiae (GC 4564)): 0.25 µg/mL (≈ 0.181 µM)
MIC Streptococcus pneumoniae (ATCC 6301) (Streptococcus sp.; Streptococcus pneumoniae (ATCC 6301)): <0.06 µg/mL
MIC Streptococcus pneumoniae (GC 1894) (Streptococcus sp.; Streptococcus pneumoniae (GC 1894)): <0.06 µg/mL
MIC Streptococcus pneumoniae (GC 4565) (Streptococcus sp.; Streptococcus pneumoniae (GC 4565)): <0.06 µg/mL
MIC Streptococcus pyogenes (GC 4563) (Streptococcus sp.; Streptococcus pyogenes (GC 4563)): 0.25 µg/mL (≈ 0.181 µM)
MIC Streptococcus pneumoniae (ATCC 6301) (Streptococcus sp.; strain ATCC 6301): <0.06 µg/mL
MIC Streptococcus pneumoniae (GC 1894) (Streptococcus sp.; strain GC 1894): <0.06 µg/mL
MIC Streptococcus pyogenes (GC 4563) (Streptococcus sp.; strain GC 4563): 0.25 µg/mL (≈ 0.181 µM)
MIC Streptococcus agalactiae (GC 4564) (Streptococcus sp.; strain GC 4564): 0.25 µg/mL (≈ 0.181 µM)
MIC Streptococcus pneumoniae (GC 4565) (Streptococcus sp.; strain GC 4565): <0.06 µg/mL
MIC Escherichia coli (ATCC 25922) (Escherichia coli; strain ATCC 25922): 32 µg/mL (≈ 23.2 µM)
MIC Escherichia coli (GC 4559) (Escherichia coli; strain GC 4559): 64 µg/mL (≈ 46.5 µM)
MIC Escherichia coli (GC 4560) (Escherichia coli; strain GC 4560): 1 µg/mL (≈ 0.726 µM)
MIC Coagulase Negative Staphylococcus (GC 4547) (Staphylococcus sp.): 1 µg/mL (≈ 0.726 µM)
MIC Coagulase Negative Staphylococcus (GC 4548) (Staphylococcus sp.): 1 µg/mL (≈ 0.726 µM)
MIC Coagulase Negative Staphylococcus (GC 4549) (Staphylococcus sp.): 1 µg/mL (≈ 0.726 µM)
MIC Coagulase Negative Staphylococcus (GC 4551) (Staphylococcus sp.): 1 µg/mL (≈ 0.726 µM)
MIC Coagulase Negative Staphylococcus (GC 6257) (Staphylococcus sp.): 0.5 µg/mL (≈ 0.363 µM)
MIC Staphylococcus aureus (ATCC 29213) (Staphylococcus sp.): 1 µg/mL (≈ 0.726 µM)
MIC Staphylococcus aureus (GC 1131) (Staphylococcus sp.): 1 µg/mL (≈ 0.726 µM)
MIC Staphylococcus aureus (GC 3051) (Staphylococcus sp.): 1 µg/mL (≈ 0.726 µM)
MIC Staphylococcus aureus (GC 3053) (Staphylococcus sp.): 1 µg/mL (≈ 0.726 µM)
MIC Staphylococcus aureus (GC 4541) (Staphylococcus sp.): 1 µg/mL (≈ 0.726 µM)
MIC Staphylococcus aureus (GC 4542) (Staphylococcus sp.): 0.5 µg/mL (≈ 0.363 µM)
MIC Staphylococcus aureus (GC 4544) (Staphylococcus sp.): 1 µg/mL (≈ 0.726 µM)
MIC Staphylococcus aureus (GC 4545) (Staphylococcus sp.): 1 µg/mL (≈ 0.726 µM)
MIC Staphylococcus aureus-SMITH (GC 4543) (Staphylococcus sp.): 1 µg/mL (≈ 0.726 µM)
MIC Staphylococcus haemolyticus (GC 4546) (Staphylococcus sp.): 0.5 µg/mL (≈ 0.363 µM)
MIC Staphylococcus aureus (GC 1131) (Staphylococcus sp.; inoculum 5×10^5 CFU/mL, strain GC 1131): 1 µg/mL (≈ 0.726 µM)
MIC Staphylococcus aureus (ATCC 29213) (Staphylococcus sp.; strain ATCC 29213): 1 µg/mL (≈ 0.726 µM)
MIC Staphylococcus aureus (GC 3051) (Staphylococcus sp.; strain GC 3051): 1 µg/mL (≈ 0.726 µM)
MIC Staphylococcus aureus (GC 3053) (Staphylococcus sp.; strain GC 3053): 1 µg/mL (≈ 0.726 µM)
MIC Staphylococcus aureus (GC 4541) (Staphylococcus sp.; strain GC 4541): 1 µg/mL (≈ 0.726 µM)
MIC Staphylococcus aureus (GC 4542) (Staphylococcus sp.; strain GC 4542): 0.5 µg/mL (≈ 0.363 µM)
MIC Staphylococcus aureus (GC 4544) (Staphylococcus sp.; strain GC 4544): 1 µg/mL (≈ 0.726 µM)
MIC Staphylococcus aureus (GC 4545) (Staphylococcus sp.; strain GC 4545): 1 µg/mL (≈ 0.726 µM)
MIC Staphylococcus haemolyticus (GC 4546) (Staphylococcus sp.; strain GC 4546): 0.5 µg/mL (≈ 0.363 µM)
MIC Coagulase Negative Staphylococcus (GC 4547) (Staphylococcus sp.; strain GC 4547): 1 µg/mL (≈ 0.726 µM)
MIC Coagulase Negative Staphylococcus (GC 4548) (Staphylococcus sp.; strain GC 4548): 1 µg/mL (≈ 0.726 µM)
MIC Coagulase Negative Staphylococcus (GC 4549) (Staphylococcus sp.; strain GC 4549): 1 µg/mL (≈ 0.726 µM)
MIC Coagulase Negative Staphylococcus (GC 4551) (Staphylococcus sp.; strain GC 4551): 1 µg/mL (≈ 0.726 µM)
MIC Coagulase Negative Staphylococcus (GC 6257) (Staphylococcus sp.; strain GC 6257): 0.5 µg/mL (≈ 0.363 µM)
MIC Staphylococcus aureus-SMITH (GC 4543) (Staphylococcus sp.; strain SMITH GC 4543): 1 µg/mL (≈ 0.726 µM)
MIC Enterococcus avium (GC 4558) (Enterococcus sp.; Enterococcus avium (GC 4558)): 2 µg/mL (≈ 1.45 µM)
MIC Enterococcus faecalis (ATCC 29212) (Enterococcus sp.; Enterococcus faecalis (ATCC 29212)): 2 µg/mL (≈ 1.45 µM)
MIC Enterococcus faecalis (GC 2242) (Enterococcus sp.; Enterococcus faecalis (GC 2242)): 2 µg/mL (≈ 1.45 µM)
MIC Enterococcus faecalis (GC 2691) (Enterococcus sp.; Enterococcus faecalis (GC 2691)): 2 µg/mL (≈ 1.45 µM)
MIC Enterococcus faecalis (GC 3059) (Enterococcus sp.; Enterococcus faecalis (GC 3059)): 2 µg/mL (≈ 1.45 µM)
MIC Enterococcus faecalis (GC 4552) (Enterococcus sp.; Enterococcus faecalis (GC 4552)): 2 µg/mL (≈ 1.45 µM)
MIC Enterococcus faecalis (GC 4553) (Enterococcus sp.; Enterococcus faecalis (GC 4553)): 2 µg/mL (≈ 1.45 µM)
MIC Enterococcus faecalis (GC 4554) (Enterococcus sp.; Enterococcus faecalis (GC 4554)): 2 µg/mL (≈ 1.45 µM)
MIC Enterococcus faecalis (GC 6189) (Enterococcus sp.; Enterococcus faecalis (GC 6189)): 2 µg/mL (≈ 1.45 µM)
MIC Enterococcus faecium (GC 2243) (Enterococcus sp.; Enterococcus faecium (GC 2243)): 2 µg/mL (≈ 1.45 µM)
MIC Enterococcus faecium (GC 4556) (Enterococcus sp.; Enterococcus faecium (GC 4556)): 2 µg/mL (≈ 1.45 µM)
MIC Enterococcus faecium (GC 4557) (Enterococcus sp.; Enterococcus faecium (GC 4557)): 2 µg/mL (≈ 1.45 µM)
MIC Enterococcus faecalis (ATCC 29212) (Enterococcus sp.; strain ATCC 29212): 2 µg/mL (≈ 1.45 µM)
MIC Enterococcus faecalis (GC 2242) (Enterococcus sp.; strain GC 2242): 2 µg/mL (≈ 1.45 µM)
MIC Enterococcus faecium (GC 2243) (Enterococcus sp.; strain GC 2243): 2 µg/mL (≈ 1.45 µM)
MIC Enterococcus faecalis (GC 2691) (Enterococcus sp.; strain GC 2691): 2 µg/mL (≈ 1.45 µM)
MIC Enterococcus faecalis (GC 3059) (Enterococcus sp.; strain GC 3059): 2 µg/mL (≈ 1.45 µM)
MIC Enterococcus faecalis (GC 4552) (Enterococcus sp.; strain GC 4552): 2 µg/mL (≈ 1.45 µM)
MIC Enterococcus faecalis (GC 4553) (Enterococcus sp.; strain GC 4553): 2 µg/mL (≈ 1.45 µM)
MIC Enterococcus faecalis (GC 4554) (Enterococcus sp.; strain GC 4554): 2 µg/mL (≈ 1.45 µM)
MIC Enterococcus faecium (GC 4556) (Enterococcus sp.; strain GC 4556): 2 µg/mL (≈ 1.45 µM)
MIC Enterococcus faecium (GC 4557) (Enterococcus sp.; strain GC 4557): 2 µg/mL (≈ 1.45 µM)
MIC Enterococcus avium (GC 4558) (Enterococcus sp.; strain GC 4558): 2 µg/mL (≈ 1.45 µM)
MIC Enterococcus faecalis (GC 6189) (Enterococcus sp.; strain GC 6189): 2 µg/mL (≈ 1.45 µM)
median effective dose (ED50), Enterococcus faecalis (GC 6189) [1]: 0.46 mg/kg
